Measured values from patent US20220125752A1, “LEVODOPA DERIVATIVE AND USE THEREOF” (UNIVERSITY OF TSUKUBA, priority 2019, published 2022).

Key:
[1] = test system: heart, lung, liver, spleen, and kidney; design: species or system mice; conditions: mouse, in vivo
Procedure: After the animals were euthanized, major organs were cut out from mouse models of Parkinson's disease (PD) and L-DOPA-induced dyskinesia (LID) and fixed in a 4% paraformaldehyde solution at 4° C. for 72 hours. These tissues were then processed using an automated tissue processor (TP1020, Leica, Germany). The samples embedded in paraffin were subsequently sliced to a thickness of […] with an automatic microtome and stained with hematoxylin and eosin (H&E) as well as Masson trichrome (MT). Histological evaluation was performed by observation under an optical microscope (DP73, Olympus, Japan) and assessment of the potential toxicity of the PEG-b-P(L-DOPA(OAc)2)-Npa (or Nano^DOPA) during the treatment.

[2] = test system: Parkinson's disease mouse models (MPTP); experiment: Narrow beam walk test, oral administration; type: in vivo, C57BL/6J mice; conditions: oral L-DOPA 15 mg/kg; versus MPTP-administered group
Procedure: (§1) Male C57BL/6J mice, 15 weeks old, were used as models as in Test 2. A three-day training period was provided for the models prior to administration to familiarize them with the experimental apparatus. MPTP was administered intraperitoneally at 30 mg/kg every day for the first 5 days (sub-acute). After the administration of MPTP, oral administration of L-DOPA or Nano^DOPA (administered once daily with a tube) was started, and MPTP was administered intraperitoneally to Groups II and III on Day 9, 4 times daily, every 2 hours (acute). MPTP was also administered intraperitoneally in a similar manner to the remaining Group IV on Day 10. The catalepsy test was performed on the same day as the acute administration of MPTP. In addition, the narrow beam walk test (see Test 2 (4)) was performed 2 days after the catalepsy test. All the mice were euthanized the next day of the behavioral test. Each group described above was as follows, and the mice were randomized into the following four groups (n=8). II. MPTP 30 mg/kg, for 5 days (sub-acute)+MPTP 20 mg/kg, 4 times daily, every 2 hours (acute) MPTP 30 mg/kg, for 5 days (sub-acute)+MPTP 20 mg/kg, 4 times daily, every 2 hours (acute)+L-DOPA 15 mg/kg (oral) IV. MPTP 30 mg/kg, for 5 days (sub-acute)+MPTP 20 mg/kg, 4 times daily, every 2 hours (acute)+Nano^DOPA 1.5 mg/kg (given ad libitum) The results are shown in FIG. 21.

[3] = test system: L-DOPA-induced dyskinesia in MPTP mice; experiment: Slider test; type: in vivo, C57BL/6J mice; conditions: Day 17; 25 mg/kg (in terms of L-DOPA) with Benserazide 12 mg/kg for 17 days
Excerpt: Male C57BL/6J mice, 15 weeks old, were used (see Chonpathompikunlert, P. (2018). BMC Complementary and Alternative Medicine, 18(103), 1 -12). […] The administration before treatment was to induce PD, and the administration after treatment was to visualize by a behavioral test. […] (6) In addition, in a slider test, motor ability can be assessed by measuring the time until each mouse becomes unable to walk on a slope of 26.5 degrees or slides down, and the time is expected to be shortened with Parkinson's disease.

[4] = test system: Parkinson's disease mouse models (MPTP); experiment: Catalepsy test, oral administration; type: in vivo, C57BL/6J mice; conditions: L-DOPA 15 mg/kg, Nano^DOPA 1.5 mg/kg (given ad libitum), same day as acute MPTP
Procedure: as §1

[5] = test system: L-DOPA-induced dyskinesia in MPTP mice; experiment: Abnormal involuntary movement scale test (AIMS test); type: in vivo, C57BL/6J mice; conditions: Day 17; 25 mg/kg (in terms of L-DOPA) with Benserazide 12 mg/kg for 17 days
Procedure: Male C57BL/6J mice, 15 weeks old, were used (see Chonpathompikunlert, P. (2018). BMC Complementary and Alternative Medicine, 18(103), 1 -12). […] The administration before treatment was to induce PD, and the administration after treatment was to visualize by a behavioral test. […] An abnormal involuntary movement scale test (AIMS test) was performed as a behavioral test according to the above schedule, and the severity of dyskinesia was scored (0: no AIM, 1: AIM in <50%, 2: AIM in >50%, 3: continuous but stopped by stimulation, 4: continuous). Mice with a strong symptom of dyskinesia have a large score.

[6] = Body weight change and health during treatment; type: in vivo, C57BL/6J mice; conditions: 15 mg/kg (in terms of L-DOPA) intraperitoneal for 11 days
Procedure: Male C57BL/6J mice, 15 weeks old, were used (see Chonpathompikunlert, P. (2018). BMC Complementary and Alternative Medicine, 18(103), 1 -12). A method of intraperitoneally administering 1-methyl-4-phenyl -1,2,3,6-tetrahydropyridine (MPTP) was used, but MPTP was administered before and after treatment with intraperitoneal administration of nanoparticles because of high recovery ability of mice themselves. The administration before treatment was to induce PD, and the administration after treatment was to visualize by a behavioral test.
The mice were randomly divided into the following four groups (n=4). • 1) Saline, for 12 days • 2) MPTP 20 mg/kg, 4 times daily, every 2 hours+saline, for 11 days+MPTP 30 mg/kg, for 3 days • 3) MPTP 20 mg/kg, 4 times daily, every 2 hours+L-DOPA 15 mg/kg, for 11 days+MPTP 30 mg/kg, for 3 days • 4) MPTP 20 mg/kg, 4 times daily, every 2 hours+NPs 15 mg/kg (in terms of L-DOPA), for 11 days+MPTP 30 mg/kg, for 3 days

[7] = test system: MPTP mouse model of Parkinson's disease; experiment: Narrow beam walk test, intraperitoneal treatment; type: in vivo, C57BL/6J mice; conditions: Day 7; 15 mg/kg (in terms of L-DOPA) intraperitoneal; versus MPTP-administered group
Excerpt: Male C57BL/6J mice, 15 weeks old, were used (see Chonpathompikunlert, P. (2018). BMC Complementary and Alternative Medicine, 18(103), 1 -12). […] The administration before treatment was to induce PD, and the administration after treatment was to visualize by a behavioral test. […] In this test, motor ability can be accessed by measuring the time until a mouse passes through a narrow bridge with a width of 1 cm, and the time increases with Parkinson's disease.

[8] = test system: MPTP mouse model of Parkinson's disease; experiment: Grid walking test, intraperitoneal treatment; type: in vivo, C57BL/6J mice; conditions: Day 11, after MPTP administered again; 15 mg/kg (in terms of L-DOPA) intraperitoneal for 11 days
Procedure: Male C57BL/6J mice, 15 weeks old, were used (see Chonpathompikunlert, P. (2018). BMC Complementary and Alternative Medicine, 18(103), 1 -12). […] The administration before treatment was to induce PD, and the administration after treatment was to visualize by a behavioral test. […] A grid walk test was performed as a behavioral test according to the above schedule, and the number of times the limbs of the mouse slipped into the opening was counted to test the balance ability.

Molecule | organ damage by H&E staining [1] | foot slip errors in narrow beam walk test [2] | slider test, walking on a slope of 26.5 degrees [3] | catalepsy test [4] | severity of dyskinesia (AIMS observation) [5] | body weight after MPTP-induced loss [6] | health damage during the administration [6] | time to pass through narrow bridge (narrow beam walk) [7] | number of slipping in grid walking test [8]
PEG-b-P(L-DOPA(OAc)2) | does not damage each organ at all |  |  |  |  |  |  |  | 
N[C@@H](Cc1ccc(O)c(O)c1)C(=O)O [L-DOPA, 3,4-dihydroxy-L-phenylalanine] |  | significantly suppressed | sliding down due to involuntary movements of mice was observed only in the L-DOPA-administered group | no significant difference | involuntary movements of the oral cavity and twisting of the body axis characteristic of dyskinesia were observed only in the L-DOPA-administered group | rapidly recovered | no noticeable health damage was observed | improvement in therapeutic effect were continuously and significantly observed | no difference was observed in the L-DOPA-administered group compared to the non-treatment group
